# Experimental data reported in EPA's ToxRefDB 2.
# Columns and labels:
# rat [1] = details: Multigenerational reproductive toxicity study, sprague dawley, Oral, Feed, dose end: 2 generation
# dog = details: Chronic toxicity; beagle; Oral; Feed; dose end: 12 month; group: systemic; systemic / hematology / anemia / anemia - hemolytic + systemic / hematology / erythrocyte (rbc) count differential / erythrocyte (rbc) + …
# rat [2] = details: Combined chronic toxicity/carcinogenicity, sprague dawley, Oral, Feed, dose end: 31 month, group: systemic
# mouse = details: Carcinogenicity, cd1, Oral, Feed, dose end: 78 week, group: systemic
# primate = details: Subchronic oral toxicity in nonrodent, rhesus, Feed, dose end: 6 month, group: systemic, systemic / organ weight / thyroid gland / absolute
# rat [3] = details: Prenatal developmental toxicity study, sprague dawley, Oral, Gavage/Intubation, dose end: 15 GD
# [4] = group: offspring, systemic / organ weight / liver / nos
# [5] = group: parental, systemic / organ weight / testes / nos
# [6] = group: reproductive, reproductive / reproductive performance / precoital interval / precoital interval
# [7] = systemic / clinical chemistry / thyroxine (t4) / thyroxine (t4), total
# [8] = systemic / pathology microscopic / liver / adenoma + systemic / pathology microscopic / lung / adenoma + systemic / clinical chemistry / …
# [9] = left thyroid + systemic / clinical chemistry / [other] / [other] + systemic / in life …
# [10] = group: developmental, developmental / developmental malformation / bone / bent + developmental / developmental malformation / bone / incomplete ossification + …
# [11] = group: maternal, reproductive / reproductive performance / postimplantation loss / postimplantation loss + reproductive / reproductive performance / …
smiles,measurement,setting,value
S=C([S-])NCCNC(=S)[S-].[Mn+2] [Maneb],LOAEL,"rat [1]; group: offspring, developmental / developmental landmark / vaginal opening / vaginal opening",106 mg/kg/day
same,NOAEL,"rat [1]; group: offspring, developmental / developmental landmark / vaginal opening / vaginal opening + systemic / in life observation / body weight / offspring (pup) …",25.1 mg/kg/day
same,LEL,rat [1]; [4],5.8 mg/kg/day
same,NEL,rat [1]; [4],< 5.8 mg/kg/day
same,LOAEL,"rat [1]; group: parental, systemic / organ weight / lung / nos",21.2 mg/kg/day
same,NOAEL,"rat [1]; group: parental, systemic / organ weight / lung / nos + systemic / in life observation / body weight / body weight + systemic / in life observation / body …",5.3 mg/kg/day
same,LEL,rat [1]; [5],5.3 mg/kg/day
same,NEL,rat [1]; [5],< 5.3 mg/kg/day
same,LEL,rat [1]; [6],106 mg/kg/day
same,LOAEL,rat [1]; [6],> 106 mg/kg/day
same,NEL,rat [1]; [6],25.1 mg/kg/day
same,NOAEL,rat [1]; [6],≥ 106 mg/kg/day
same,LEL,dog,7.18 mg/kg/day
same,LOAEL,dog,33.8 mg/kg/day
same,NEL,dog,1.71 mg/kg/day
same,NOAEL,dog,6.36 mg/kg/day
same,LEL,rat [2]; systemic / organ weight / adrenal gland / absolute,21.8 mg/kg/day
same,NEL,rat [2]; systemic / organ weight / adrenal gland / absolute + systemic / pathology microscopic / pituitary gland / adenoma + systemic / pathology …,7.32 mg/kg/day
same,LOAEL,rat [2]; systemic / pathology microscopic / urinary bladder / dysplasia + systemic / clinical chemistry / [other] / [other] + systemic / clinical …,68.4 mg/kg/day
same,NOAEL,rat [2]; systemic / pathology microscopic / urinary bladder / dysplasia + systemic / pathology microscopic / skeletal muscle / sarcoma + systemic / …,20.4 mg/kg/day
same,LEL,mouse; [7],10.8 mg/kg/day
same,NEL,mouse; [7],< 10.8 mg/kg/day
same,LOAEL,mouse; [8],> 355 mg/kg/day
same,NOAEL,mouse; [8],≥ 355 mg/kg/day
same,LEL,primate; left thyroid,15.5 mg/kg/day
same,LOAEL,primate; left thyroid,15.5 mg/kg/day
same,NEL,primate; [9],5.2 mg/kg/day
same,NOAEL,primate; [9],5.2 mg/kg/day
same,LEL,rat [3]; [10],500 mg/kg/day
same,LOAEL,rat [3]; [10],> 500 mg/kg/day
same,NEL,rat [3]; [10],100 mg/kg/day
same,NOAEL,rat [3]; [10],≥ 500 mg/kg/day
same,LEL,rat [3]; [11],100 mg/kg/day
same,LOAEL,rat [3]; [11],100 mg/kg/day
same,NEL,rat [3]; [11],20 mg/kg/day
same,NOAEL,rat [3]; [11],20 mg/kg/day
